One may read the IC50 as the concentration at which inhibition is half-maximal.

SMILES strings stand for the structures.

The assay deals with T1, recombinant human 15-PGDH (Homo sapiens, UniProt P15428).
T1 construct: purchased R&D Systems
T1 sequence (P15428 1-266): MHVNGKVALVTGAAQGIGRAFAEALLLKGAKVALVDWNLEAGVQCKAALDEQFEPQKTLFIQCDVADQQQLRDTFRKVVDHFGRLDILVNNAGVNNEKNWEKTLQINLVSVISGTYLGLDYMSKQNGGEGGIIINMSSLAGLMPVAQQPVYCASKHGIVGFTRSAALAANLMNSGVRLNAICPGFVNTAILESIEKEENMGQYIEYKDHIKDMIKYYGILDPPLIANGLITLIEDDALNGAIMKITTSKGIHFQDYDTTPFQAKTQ
In words: 15-PGDH enzyme inhibition test. It counts as biochemical. The settings on record: 4 nM recombinant human 15-PGDH, 30 μM PGE2, 1 mM NAD+, 60 minutes after starting the reaction; read-out: IC50 Value. In short, it runs like this: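 Fluorescence (excitation 340 nm, emission 440 nm) measured 60 min after adding 1 mM NAD+ and 30 μM PGE2 to 4 nM recombinant human 15-PGDH, which had stood 12 min at room temperature with compound in pH 8.0 Tris-HCl buffer. Concentration-response curves yield IC50, binned into potency categories.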
Turning to `CC(=O)N1CCN(C(=O)c2cnc3c(c2)OCCN3c2ccc3c(c2)CN(C)C3=O)CC1` [Example 8-190], the IC50 was above 100 nM.
Take `CN1CCN(c2ccc(C(=O)O)cc2)c2ncc(C(=O)N3CCCCC3)cc21` [Example 4-21]: the IC50 was below 10 nM.
Consider `O=C(c1cnc2c(c1)OCCN2c1ccc2c(=O)[nH]ccc2c1)N1CCCCC1` [Example 1-219], for which the IC50 is below 10 nM.
On to `O=C(c1cnc2c(c1)OCCN2c1ccc(F)cc1)N1CCCCC1` [Example 1-236], for which the IC50 was above 100 nM.
The figure for `O=C(O)c1ccc(N2CCOc3cc(C(=O)N4CCCCC4)sc32)cc1` [Example 4-12] is below 10 nM.
`CN1Cc2cc(N3CCOc4cc(C(=O)N5CCC(F)(F)CC5)ccc43)ccc2C1=O` [Example 1-149]: the IC50 was below 10 nM.
`COCCNC(=O)c1ccc(N2CCCc3cc(C(=O)N4CCC(F)(F)CC4)cnc32)cc1F` [Example 1-176]: the IC50 was below 10 nM.
In the case of `COCCCNC(=O)c1cnc2c(c1)OCCN2c1ccn2c(=O)n(C)nc2c1` [Example 8-107], the IC50 is below 10 nM.
The figure for `Cn1nc2cc(N3CCOc4cc(C(=O)N5CCC6(CC5)CC6)cnc43)ccn2c1=O` [Example 8-45] is below 10 nM.
The figure for `CCN1Cc2cc(N3CCCc4cc(C(=O)N5CCCC[C@H]5C)cnc43)ccc2C1=O` [Example 8-78] is below 10 nM; for `CN1Cc2cc(N3CCOc4cc(C(=O)N5CCCCC5)cnc43)ccc2C1=O` [Example 1-23] it is below 10 nM; for `CS(=O)(=O)Cc1ccc(N2CCOc3cc(C(=O)N4CCCCC4)ccc32)cc1` [Example 1-162] it is below 10 nM.
With `O=C(c1cnc2c(c1)CCCN2c1ccc2c(c1)CN(C1COC1)C2=O)N1CCCCC1` [Example 1-66], the IC50 was below 10 nM.
As for `O=C(O)c1ccc(N2CCC[S+]([O-])c3cc(C(=O)N4CCCCC4)ccc32)cc1` (stereo not drawn) [Example 2-19], the IC50 was above 100 nM.
With `Cn1cnc2cc(N3CCCc4cc(C(=O)N5CCCCC5)cnc43)cnc2c1=O` [Example 1-190], the IC50 is below 10 nM.
On to `CCn1nc2cc(N3CCCc4cc(C(=O)N5CCC[C@H](C(F)(F)F)C5)cnc43)ccn2c1=O` [Example 8-171], for which the IC50 is below 10 nM.
Take `O=C(NCC1COC1)c1ccc(N2CCCc3cc(C(=O)N4CCCCC4)cnc32)cc1F` [Example 1-61]: the IC50 was below 10 nM.
Then `O=C(O)c1ccc(N2CCCc3cc(C(=O)N4CCCCC4)ccc32)cc1` [Example 2-26], with below 10 nM; and `CCOCCN1Cc2cc(N3CCCc4cc(C(=O)N5CCC(F)(F)CC5)cnc43)ncc2C1=O` [Example 1-185], with 10 to 100 nM; and `CCN1Cc2cc(N3CCCc4cc(C(=O)N5CCC[C@H](C(F)F)C5)cnc43)ccc2C1=O` [Example 8-94], with below 10 nM.
As for `O=C(c1cnc2c(c1)CCCN2c1ccn2c(=O)[nH]nc2c1)N1CCC(F)(F)CC1` [Example 1-184], the IC50 was below 10 nM.
With `Cn1nc2cc(N3CCOc4cc(C(=O)N5CCCC(C)(F)C5)cnc43)ccn2c1=O` (single isomer, unassigned) [23-2 Isomer A], the IC50 was below 10 nM.
For `CN1Cc2cc(N3CCOc4cc(C(=O)N5CCC5)cnc43)ccc2C1=O` [Example 8-184], the IC50 is below 10 nM.
Then `CCOCCn1nc2cc(N3CCCc4cc(C(=O)N5CCC[C@@H](CF)C5)cnc43)ccn2c1=O` [Example 1-124], with below 10 nM.
Take `COC(=O)c1ccc(N2CCc3cc(C(=O)N4CCCCC4)ccc32)cc1` [Example 1-140]: the IC50 was below 10 nM.
As to `CN1C(=O)C(C)(C)c2cc(N3CCOc4cc(C(=O)N5CCCCC5)cnc43)ccc21` [Example 1-249], the IC50 was above 100 nM.
Then `CN(CCCO)C(=O)c1cnc2c(c1)OCCN2c1ccn2c(=O)n(C)nc2c1` [Example 8-175], with 10 to 100 nM; and `NC(=O)c1ccc(N2CCCc3cc(C(=O)N4CCCCC4)cnc32)cc1` [Example 6-14], with below 10 nM.
Take `CCOCCN1Cc2cc(N3CCCc4cc(C(=O)N5CCCCC5)cnc43)ccc2C1=O` [Example 1-63]: the IC50 is below 10 nM.
Then `CCN1Cc2cc(N3CCCc4cc(C(=O)N5CCC(F)(F)CC5)cnc43)ccc2C1=O` [Example 1-126], with below 10 nM.
On to `COCN1Cc2cc(N3CCCc4cc(C(=O)N5CCCCC5)cnc43)ccc2C1=O` [Example 1-172], for which the IC50 is below 10 nM.
As for `C[C@H]1CCCN(C(=O)c2cnc3c(c2)OCCN3c2ccc3c(c2)CN(C)C3=O)C1` [Example 8-198], the IC50 is below 10 nM.
With `Cn1nc2cc(N3CCCc4cc(C(=O)N5CCC[C@H](C(F)F)C5)cnc43)ccn2c1=O` [Example 8-143], the IC50 is below 10 nM.
In the case of `CCCn1nc2cc(N3CCOc4cc(C(=O)N5CCCCC5)cnc43)ccn2c1=O` [Example 1-215], the IC50 was below 10 nM.
Then `O=C(c1cnc2c(c1)OCCN2c1ccn2c(=O)n(Cc3ccc(F)cc3)nc2c1)N1CCCCC1` [Example 27-1], with below 10 nM; and `Cn1nc2cc(N3CCCCc4cc(C(=O)N5CCCCC5)cnc43)ccn2c1=O` [Example 1-107], with below 10 nM.
In the case of `O=C(c1cnc2c(c1)OCCN2c1ccccc1)N1CCCCC1` [Example 1-232], the IC50 lay in the range of 10 to 100 nM.
`Cn1nc2cc(N3CCCOc4cc(C(=O)N5CCCC5)cnc43)ccn2c1=O` [Example 8-58]: the IC50 is below 10 nM.
Consider `Cn1nc2cc(N3CCOc4cc(C(=O)N5CCC[C@@H]5C(N)=O)cnc43)ccn2c1=O` [Example 36-2], for which the IC50 is above 100 nM.
Turning to `NC(=O)Cn1nc2cc(N3CCOc4cc(C(=O)N5CCCCC5)cnc43)ccn2c1=O` [Example 6-6], the IC50 is below 10 nM.
On to `CC1CCN(C(=O)c2cnc3c(c2)OCCN3c2ccc3c(c2)CN(C)C3=O)CC1` [Example 8-194], for which the IC50 is below 10 nM.
Take `CC(=O)N(C)C1CCCN(C(=O)c2cnc3c(c2)OCCN3c2ccn3c(=O)n(C)nc3c2)C1` (stereo not drawn) [Example 34-1, N-Methyl-N-(1-(4-(2-methyl-3-oxo-2,3-dihydro-[1,2,4]triazolo[4,3-a]pyridin-7-yl)-3,4-dihydro-2H-pyrido[3,2-b][1,4]oxazin-7-carbonyl)piperidin-3-yl)acetamide]: the IC50 is above 100 nM.
`O=C(c1cnc2c(c1)OCCN2c1ccc2ccncc2c1)N1CCCCC1` [Example 1-260]: the IC50 was below 10 nM.
On to `CN1Cc2cc(N3CCOc4cc(C(=O)C5CCCCC5)cnc43)ccc2C1=O` [Example 1-134], for which the IC50 is below 10 nM.
As for `O=C(c1cnc2c(c1)OCCN2c1cccc(Cl)c1)N1CCCCC1` [Example 1-253], the IC50 was in the range of 10 to 100 nM.
On to `CCN1Cc2cc(N3CCCc4cc(C(=O)N5CCC[C@H](C)C5)cnc43)ccc2C1=O` [Example 8-90], for which the IC50 is below 10 nM.
As for `COCCN1Cc2cc(N3CCCc4cc(C(=O)N5CCCCC5)cnc43)ccc2C1=O` [Example 1-64], the IC50 was below 10 nM.
Take `COCCn1nc2cc(N3CCCc4cc(C(=O)N5CCC[C@@H](CF)C5)cnc43)ccn2c1=O` [Example 1-123]: the concentration for half-maximal inhibition (IC50) is below 10 nM.
For the compound `Cn1nc2cc(N3CCOc4cc(C(=O)N5CCCC6(COC6)C5)cnc43)ccn2c1=O` [Example 8-52], the IC50 was in the range of 10 to 100 nM.
For the compound `Cn1nc2cc(N3CCCc4cc(C(=O)N5Cc6ccccc6C5)cnc43)ccn2c1=O` [Example 8-131], the IC50 is below 10 nM.
The figure for `CCn1nc2cc(N3CCOc4cc(C(=O)N5CCC(F)(F)CC5)cnc43)ccn2c1=O` [Example 8-211] is below 10 nM.

These data come from patent publication US12577217B2, “15-PGDH inhibitor” (KYORIN Pharmaceutical Co., Ltd., priority 2019, dated 2026).
